Data: publication PMC3097154, “Antiviral activity of α-helical stapled peptides designed from the HIV-1 capsid dimerization domain” (Retrovirology, 2011)
Read-outs that look alike come from different tables or passages of the source. Positions of bridges follow the written chain, without caps; N, C: chain ends. Non-standard residues stand in square brackets, D forms with d. Residues, ends and D or L forms follow the SMILES beside them. S5 = C=CCCC[C@](C)(N)C(=O)O

Experiments:
[1] = tested on: wild type CTD (wtCTD) of HIV-1 CA; assay: ITC dilution of CTD dimers in presence of peptide; type: binding; conditions: for Kdiss (apparent CTD dimer dissociation constant): ITC dilution, 30°C; for 200 μM CTD (fm), estimated fraction of CTD occurring as monomers: calculated from monomer-dimer equilibrium expressions
Description: The effect of the dimer interface peptide, NYAD-203, a soluble analog of NYAD-201, on dimer dissociation was first examined by isothermal titration calorimetry (ITC). Dilution of CTD by sequential ITC injections into buffer, pH 7.3, 30°;C gave a series of endothermic heat pulses (Figure 4) consistent with dissociation of protein oligomers modeled as dimers, with dimer dissociation constant (Kdiss) ~15 μM and dissociation enthalpy (ΔHdiss) of 10.7 kcal mole^-1. […] For such a mechanism, the apparent dimer dissociation constant should depend on the free peptide (inhibitor) concentration ([I]) and binding affinity (KI) as follows: [drawing 1]
or an approximate form that might be valid at high inhibitor concentrations: [drawing 2]
where Ci is the total peptide inhibitor concentration in the mixture. This analysis is, however, further complicated by apparent self-association of the peptide (see NMR section) that reduces the availability of free monomer (lower [I]) at higher concentrations and thus leads to underestimation of peptide binding affinities and a concentration dependence of apparent Ki. However, by use of the above equations and extrapolation to low concentrations, we obtain a value of Ki = 40 (±5) μM for the binding of stapled peptide (NYAD-203) monomer to CTD under these conditions.
The influence of the peptides on dimer dissociation of wild type CTD (wtCTD) was investigated by ITC (MicroCal VP-ITC) following established protocols. Proteins were exhaustively dialyzed against the 25 mM sodium phosphate buffer (pH 7.3) prior to experimental measurements. In a typical experiment, the ITC injection syringe was loaded with 250 μM protein, dissolved in dialysis buffer or dialysis buffer/peptide mixture and the calorimetric cell (ca. 1.4 ml active volume) initially contained only the identical buffer mixture. Typically titrations consisted of 28 injections of 10 μl, with 240-s equilibration between injections. The thermodynamic parameters were obtained and data were analyzed using MicroCal Origin 7.0 software, using an updated and corrected (June 2008) version of the dissociation analysis procedure, validated by comparison with earlier analysis methods.

[2] = tested on: monomeric CTD mutant (W184A/M185A); assay: Binding to monomeric CTD mutant; design: species or system HIV-1; conditions: data not shown
[3] = NMR of isolated peptide (self-association); type: physicochemical; conditions: 20 mM phosphate buffer pH 7.0, 288 K
HIV-1 CA = conditions: 25°C, pH 7.3, ideal single-species model, CA alone 41,213
Description: In the second set of experiments, the possible effect of NYAD-203 on dimer stability was analyzed by sedimentation equilibrium.
Sedimentation equilibrium experiments were performed using a ProteomeLab XL-A analytical ultracentrifuge using 6-channel centerpieces in an An-60Ti rotor at 25°C. Protein samples were dialyzed into 50 mM sodium phosphate buffer (pH 7.3). […] Radial scans were measured at 280 nm. The data were fitted to an ideal single-species model as well as a rapid monomer-dimer equilibrium using the Beckman XL-A/XL-I Data Analysis Software (Version 6.03).

[4] = tested on: GFP-Vpr-labeled HIV-1 virions in SupT1 cells; assay: Virus entry, GFP-Vpr-labeled HIV-1 virions, FACS; type: cell-based; conditions: 111 nM

CSCC[C@@H]1NC(=O)[C@H](Cc2c[nH]c3ccccc23)NC(=O)[C@@](C)(NC(=O)[C@H](CCCCN)NC(=O)[C@@H](NC(=O)[C@H](C)NC(=O)[C@H](CCC(N)=O)NC(=O)[C@H](C)N)C(C)C)CCC/C=C\CCC[C@@](C)(C(=O)N[C@H](C(=O)N[C@@H](CC(C)C)C(=O)N[C@@H](CC(C)C)C(=O)N[C@H](C(=O)N[C@@H](C)C(=O)N[C@@H](CCCCN)C(=O)N[C@@H](CCCCN)C(=O)N[C@@H](CCCCN)C(=O)O)C(C)C)[C@@H](C)O)NC(=O)[C@H]([C@@H](C)O)NC1=O [NYAD-203] (H-AQAVK[S5]WMT[S5]TLLVAKKK-OH; staple (Z) 6-10; N-terminus and C-terminus assumed)
Kdiss (apparent CTD dimer dissociation constant) ([1]; CI 50 μM NYAD-203, 25 mM sodium phosphate pH 7.3, 250 μM CTD in syringe): 31.2 (±6.6) μM
200 μM CTD (fm), estimated fraction of CTD occurring as monomers ([1]; CI 50 μM NYAD-203): 24%
Kdiss (apparent CTD dimer dissociation constant) ([1]; CI 200 μM NYAD-203, pH 7.3): 33.2 (±3.9) μM
200 μM CTD (fm), estimated fraction of CTD occurring as monomers ([1]; CI 200 μM NYAD-203): 25%
Kdiss (apparent CTD dimer dissociation constant) ([1]; CI 350 μM NYAD-203, pH 7.3): 40.5 (±6.2) μM
200 μM CTD (fm), estimated fraction of CTD occurring as monomers ([1]; CI 350 μM NYAD-203): 27%
affinity for monomeric CTD mutant (W184A/M185A) [2]: no measurable affinity
self-association of isolated peptide [3]: self-associates to form polymeric species
apparent molecular weight of CA (HIV-1 CA; CA:NYAD-203 = 1:1 (30 μM CA, 30 μM peptide)): 30,343 Daltons
apparent molecular weight of CA (HIV-1 CA; CA:NYAD-203 = 1:3 (30 μM CA, 90 μM peptide)): 27,338 Daltons

IRQGPKEPFRDYVDR [NYAD-401]
ITC heat effect (binding) ([1]; unstapled control peptide): no apparent heat effect

enfuvirtide [T-20]
inhibition of viral entry [4]: substantially inhibited viral entry
